Reference: publication PMC9223267, “Serine hydroxymethyltransferase as a potential target of antibacterial agents acting synergistically with one-carbon metabolism-related inhibitors” (Communications Biology, 2022)
Values joined by “and” are separate entries in the source; they are usually repeats but may differ in a detail not shown here. Identical values can stand only once. “Also recorded” adds a separate entry of the source. Like-named read-outs stand apart in the source and are kept apart here.

Columns and labels:
Caski cells = assay: Cell cytotoxicity assay (Cell Counting Kit-8, 5 days); assay type: cell-based, human; conditions: with each cell line (Caski, Hep-2 and Calu-3)
Protocol: After serial dilution, 100 μL of FBS-containing medium including the cells was added to each well of the plate. […] All CC50 determining assays were conducted in duplicate or triplicate[39],[40].

E. faecium [1] = assay: Bacterial viability assay (Microbial Viability Assay Kit-WST, OD450); assay type: cell-based, Enterococcus faecium; conditions: for Relative bacterial viability: single values
Protocol: Living E. faecium were determined using the Microbial Viability Assay Kit-WST (DOJINDO, Tokyo, Japan). […] Positive control wells included bacteria seeded into MH broth without compounds, and the negative control wells contained MH broth only. […] Five microlitres of the colouring reagent were added to each well of the 96-well plate every 2 h after starting incubation with each compound.

efmSHMT [2] = target: efmSHMT (Enterococcus faecium, UniProt I3U4H4, M1V); assay: biochemical; assay type: binding; conditions: 5 μM efmSHMT; 10 mM Gly and 100 μM Ser; Cheng-Prusoff
Protocol: After adding Me-THF, the efmSHMT solution was incubated for 30 min at room temperature. The optical density at 500 and 600 nm (OD500 and OD600) were then measured using a nanodrop spectrophotometer[24],[25]. OD600 was used as the background. After detection, each concentration of inhibitor was added to the efmSHMT solution and incubated for 30 min at room temperature. OD500 and OD600 were measured. The relative OD500 intensity was calculated as relative OD500 = (OD500 – OD600)/(MAXOD500 – OD600), where MAXOD500 is the average OD500 value in the presence of 1000, 2000 and 4000 μM Me-THF without inhibitors. […] Here, IC50 is the concentration of inhibitor added to the efmSHMT solution and [Me-THF] is the EC50 in the presence of the inhibitor concentration. [EC50 without inhibitor] is the EC50 of Me-THF in the absence of the inhibitor.

efmSHMT [3] = assay type: binding, Enterococcus faecium; conditions: DSF; final drug concentration 50 μM
Protocol: Protein samples were prepared as 20 μL aliquots containing 0.1 mg/mL protein (efmSHMT/ecSHMT), 1 μL of the ligand in DMSO (final drug concentration, 50 μM) and 2% or 4% SYPRO Orange (Invitrogen, MA, USA). […] Melting points were evaluated as the half-point of the maximum intensity of each curve.

E. coli = assay: Antibacterial activity evaluation (turbidity, OD600); assay type: cell-based, Escherichia coli (ATCC25922); conditions: Escherichia coli, E. coli ATCC25922
Protocol: (§1) E. faecium and E. faecalis were diluted to turbidity equivalents that matched 1.0 McFarland (McF) standard in distilled water (S. aureus and E. coli were also diluted to 0.5 McF), and additionally diluted 1:200 in Mueller–Hinton (MH) broth. The designated concentrations of the tested compounds were prepared by ten-fold serial dilutions directly in 96-well microtiter plates (IWAKI, Shizuoka, Japan), as previously described. […] The other compounds were serially diluted from 20 μM downwards (final concentration, 10 μM). […] Positive control wells included bacteria without any compound, and the negative control wells only contained MH broth. […] The optical density at 600 nm (OD600) was measured using a GloMax microtiter plate reader (Promega, WI, USA), and the EC50 values of each test compound and standard error were calculated by Microsoft Excel function, AVERAGE and STDEV/SQRT.

E. faecium [4] = assay: Antibacterial assay with an excess concentration of biomolecules (Ser, Gly, inosine, dT, FA); assay type: cell-based, Enterococcus faecium (JCM5804)
Protocol: as §1
The ratio of the control EC50 (no competitors added) to the experimental EC50 (competitors added) was calculated for each test substance.

S. aureus = assay: Antibacterial activity evaluation (turbidity, OD600); assay type: cell-based, Staphylococcus aureus (ATCC29213); conditions: Staphylococcus aureus, S. aureus ATCC29213
Protocol: as §1

E. faecalis = assay: as above; assay type: cell-based, Enterococcus faecalis (JCM7783); conditions: Enterococcus faecalis, E. faecalis JCM7783
Protocol: as §1

E. faecium [5] = assay: as above; assay type: cell-based, Enterococcus faecium (JCM5804); conditions: Enterococcus faecium
Protocol: as §1

[6] = read-out: pEC50 ± S.E. (converted)
[7] = Enterococcus faecium, JCM5804, E. faecium JCM5804, 1 mM Inosine, read-out: EC50
[8] = Enterococcus faecium, JCM5804, E. faecium JCM5804, 1 mM Inosine, read-out: pEC50 ± S.E. (converted)
[9] = Enterococcus faecium, JCM5804, E. faecium JCM5804, 1 mM deoxythymidine, read-out: EC50
[10] = Enterococcus faecium, JCM5804, E. faecium JCM5804, 1 mM deoxythymidine, read-out: pEC50 ± S.E. (converted)
[11] = Enterococcus faecium, JCM5804, E. faecium JCM5804, 10 mM Glycine, read-out: EC50
[12] = Enterococcus faecium, JCM5804, E. faecium JCM5804, 10 mM Glycine, read-out: pEC50 ± S.E. (converted)
[13] = Enterococcus faecium, JCM5804, E. faecium JCM5804, 100 mM Serine, read-out: EC50
[14] = Enterococcus faecium, JCM5804, E. faecium JCM5804, 100 mM Serine, read-out: pEC50 ± S.E. (converted)
[15] = Enterococcus faecium, JCM5804, E. faecium JCM5804, 0.1 M folate, read-out: EC50
[16] = Enterococcus faecium, JCM5804, E. faecium JCM5804, 0.1 M folate, read-out: pEC50 ± S.E. (converted)

Sequence of efmSHMT (Enterococcus faecium, UniProt I3U4H4, M1V) (I3U4H4 whole entry M1V): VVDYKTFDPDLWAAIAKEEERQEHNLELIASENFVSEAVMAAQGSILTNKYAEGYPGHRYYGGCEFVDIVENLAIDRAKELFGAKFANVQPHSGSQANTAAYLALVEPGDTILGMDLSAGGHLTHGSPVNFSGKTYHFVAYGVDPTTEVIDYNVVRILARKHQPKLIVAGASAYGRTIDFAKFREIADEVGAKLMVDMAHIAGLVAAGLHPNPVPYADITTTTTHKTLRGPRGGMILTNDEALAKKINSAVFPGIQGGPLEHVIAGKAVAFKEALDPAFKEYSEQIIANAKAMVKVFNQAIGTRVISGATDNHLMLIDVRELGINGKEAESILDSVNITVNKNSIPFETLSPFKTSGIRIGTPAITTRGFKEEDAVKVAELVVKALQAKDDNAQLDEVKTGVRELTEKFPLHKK

CN(Cc1cnc2nc(N)nc(N)c2n1)c1ccc(C(=O)N[C@@H](CCC(=O)O)C(=O)O)cc1 [MTX, methotrexate]
selectivity index (S.I.): CC50 against each cell line / EC50 against E. faecium (Caski cells): less selective than (+)-SHIN-1, TMP and PMX
Relative bacterial viability (E. faecium [1]; 2 nM, 0 hours): 0.02233 and 0.0177 and 0.02678 and 0.02266 and 0.01761 and 0.017 and 0.0195 and 0.01799
Relative bacterial viability (E. faecium [1]; 2 nM, 2 hours): 0.03007 and 0.03198 and 0.04012 and 0.03501 and 0.02569 and 0.02735 and 0.02947 and 0.02784
Relative bacterial viability (E. faecium [1]; 2 nM, 6 hours): 0.8015 and 0.7552 and 0.8948 and 0.8943 and 0.5687 and 0.5754 and 0.5661 and 0.5425
Relative bacterial viability (E. faecium [1]; 2 nM, 8 hours): 0.6487 and 0.7535 and 0.8184 and 0.7635 and 0.7144 and 0.6621 and 0.6673 and 0.7812
Relative bacterial viability (E. faecium [1]; 2 nM, 10 hours): 0.7053 and 0.6673 and 0.7036 and 0.6902
Relative bacterial viability (E. faecium [1]; 2 nM, 12 hours): 0.8527 and 0.9211 and 0.863 and 0.9139 and 0.786 and 0.828 and 0.8102 and 0.8671
Relative bacterial viability (E. faecium [1]; 20 nM, 0 hours): 0.02944 and 0.02382 and 0.02242 and 0.01876 and 0.02362 and 0.02115 and 0.02309 and 0.02203
Relative bacterial viability (E. faecium [1]; 20 nM, 2 hours): 0.04282 and 0.03899 and 0.03091 and 0.03386 and 0.03007 and 0.02907 and 0.03321 and 0.0351
Relative bacterial viability (E. faecium [1]; 20 nM, 4 hours): 0.09761 and 0.08481 and 0.06333 and 0.08156 and 0.05837 and 0.05915 and 0.09197 and 0.0766
Relative bacterial viability (E. faecium [1]; 20 nM, 6 hours): 0.09779 and 0.1224 and 0.09629 and 0.09367 and 0.1125 and 0.1318 and 0.1324 and 0.1243
Relative bacterial viability (E. faecium [1]; 20 nM, 8 hours): 0.09766 and 0.1007 and 0.1109 and 0.1082 and 0.07161 and 0.0792 and 0.1047 and 0.1064
Relative bacterial viability (E. faecium [1]; 20 nM, 10 hours): 0.1166 and 0.1064 and 0.08667 and 0.1003 and 0.08673 and 0.1012 and 0.1144 and 0.09737
Relative bacterial viability (E. faecium [1]; 20 nM, 12 hours): 0.09054 and 0.1107 and 0.09534 and 0.1014 and 0.09177 and 0.09711 and 0.09672 and 0.1035
EC50 (E. faecium [1]; Enterococcus faecium, relative bacterial viability after 14 h incubation): 8.4 nM
Ki (efmSHMT [2]): did not change the OD500; also recorded: did not bind
ΔTm (thermal stability of efmSHMT) (efmSHMT [3]): did not stabilise efmSHMT significantly
EC50 (E. coli; read-out: EC50): > 100 µM
EC50 (E. coli; [6]): > 100 µM
EC50 (E. faecium [4]; [7]): 0.0024 µM
EC50 (E. faecium [4]; [8]): 0.00251 µM
EC50 (E. faecium [4]; [9]): > 100 µM
EC50 (E. faecium [4]; [10]): > 100 µM
EC50 (E. faecium [4]; [11]): 0.0028 µM
EC50 (E. faecium [4]; [12]): 0.00251 µM
EC50 (E. faecium [4]; [13]): 0.0026 µM
EC50 (E. faecium [4]; [14]): 0.00251 µM
EC50 (E. faecium [4]; [15]): 8.5 µM
EC50 (E. faecium [4]; [16]): 7.94 µM
EC50 (S. aureus; read-out: EC50): > 100 µM
EC50 (S. aureus; [6]): > 100 µM
EC50 (E. faecalis; read-out: EC50): 14 µM
EC50 (E. faecalis; [6]): 15.8 µM
EC50 (E. faecium [5]; JCM5804, E. faecium JCM5804, read-out: EC50): 3.6 nM
EC50 (E. faecium [5]; JCM5804, E. faecium JCM5804, read-out: pEC50 ± S.E. (converted)): 3.98 nM

Cc1n[nH]c2c1C(c1cc(N3CCCC3)cc(C(F)(F)F)c1)(C(C)C)C(C#N)=C(N)O2 (centres unmarked) [SHMT-IN-2]
selectivity index (S.I.): CC50 against each cell line / EC50 against E. faecium (Caski cells): less selective than (+)-SHIN-1, TMP and PMX
Relative bacterial viability (E. faecium [1]; 40 μM, 0 hours): 0.01862 and 0.0174 and 0.0205 and 0.01931 and 0.02646 and 0.02349 and 0.02966 and 0.03101
Relative bacterial viability (E. faecium [1]; 40 μM, 2 hours): 0.03093 and 0.0302 and 0.02505 and 0.02814 and 0.02877 and 0.02998 and 0.036 and 0.03921
Relative bacterial viability (E. faecium [1]; 40 μM, 6 hours): 0.3579 and 0.3453 and 0.3941 and 0.3482 and 0.392 and 0.3797 and 0.4394 and 0.4307
Relative bacterial viability (E. faecium [1]; 40 μM, 8 hours): 0.4949 and 0.5317 and 0.4381 and 0.3998 and 0.3519 and 0.3235 and 0.4823 and 0.3754
Relative bacterial viability (E. faecium [1]; 40 μM, 10 hours): 0.5237 and 0.542 and 0.4699 and 0.39 and 0.5132 and 0.4488 and 0.4691 and 0.4904
Relative bacterial viability (E. faecium [1]; 40 μM, 12 hours): 0.55 and 0.5489 and 0.5001 and 0.5313 and 0.5571 and 0.5294 and 0.6254 and 0.5482
Relative bacterial viability (E. faecium [1]; 80 μM, 0 hours): 0.02012 and 0.02269 and 0.02791 and 0.02552 and 0.02349 and 0.02305 and 0.03984 and 0.03245
Relative bacterial viability (E. faecium [1]; 80 μM, 2 hours): 0.03305 and 0.03431 and 0.03897 and 0.0377 and 0.0302 and 0.03755 and 0.04307 and 0.03606
Relative bacterial viability (E. faecium [1]; 80 μM, 4 hours): 0.03849 and 0.03773 and 0.03537 and 0.04204 and 0.0354 and 0.0391 and 0.04337 and 0.03653
Relative bacterial viability (E. faecium [1]; 80 μM, 6 hours): 0.04463 and 0.04595 and 0.05326 and 0.05339 and 0.04373 and 0.04075 and 0.04467 and 0.04119
Relative bacterial viability (E. faecium [1]; 80 μM, 8 hours): 0.04711 and 0.04935 and 0.05233 and 0.0524 and 0.04018 and 0.04838 and 0.04621 and 0.04757
Relative bacterial viability (E. faecium [1]; 80 μM, 10 hours): 0.04986 and 0.05353 and 0.04783 and 0.04892
Relative bacterial viability (E. faecium [1]; 80 μM, 12 hours): 0.04784 and 0.03996 and 0.04751 and 0.04436 and 0.04726 and 0.03481 and 0.04716 and 0.0494
EC50 (bacterial viability) (E. faecium [1]; relative bacterial viability after 14 h incubation): weaker activity than the turbidity detection result
Ki (efmSHMT [2]): did not change the OD500; also recorded: did not bind
ΔTm (thermal stability of efmSHMT) (efmSHMT [3]): did not stabilise efmSHMT significantly
EC50 (E. coli; read-out: EC50): > 100 µM
EC50 (E. coli; [6]): > 100 µM
EC50 (E. faecium [4]; E. faecium JCM5804, 0.1 M folate): independent of FA
EC50 (E. faecium [4]; [7]): 3.1 µM
EC50 (E. faecium [4]; [8]): 3.16 µM
EC50 (E. faecium [4]; [9]): 2.9 µM
EC50 (E. faecium [4]; [10]): 3.16 µM
EC50 (E. faecium [4]; [11]): 3 µM
EC50 (E. faecium [4]; [12]): 3.16 µM
EC50 (E. faecium [4]; [13]): 4 µM
EC50 (E. faecium [4]; [14]): 3.98 µM
EC50 (E. faecium [4]; [15]): 2.9 µM
EC50 (E. faecium [4]; [16]): 3.16 µM
EC50 (S. aureus; read-out: EC50): ≥ 100 µM
EC50 (S. aureus; [6]): ≥ 100 µM
EC50 (E. faecalis; read-out: EC50): > 100 µM
EC50 (E. faecalis; [6]): > 100 µM
EC50 (E. faecium [5]; E. faecium JCM5804, read-out: EC50): 2900 nM
EC50 (E. faecium [5]; E. faecium JCM5804, read-out: pEC50 ± S.E. (converted)): 3160 nM
